The target of one assay is T1, PDGF-Ra (Homo sapiens, UniProt P16234).
T1 construct: host or cells: G-292 human osteosarcoma cells
Nature of the assay: Inhibitory activity against PDGF-Ra phosphorylation by PDGF-AA stimulation using G292. The note with it: for IC50: > means inhibition at indicated concentration not more than 50%, < and << not less than 50%, read-out: PDGF (E) IC50; for inhibition at 0.1 µM: G292, read-out: PDGF (E) inhibition (%) at 100 nM. It counts as cell-based. Summed up: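 Human osteosarcoma G-292, 0.1% FBS o/n; cpd (DMSO) 1 h 37 °C; PDGF-AA 50 ng/ml 5 min; lyse 20 min RT; PY-20 capture 4 °C o/n; anti-PDGF-Ra + HRP-GAR; OD450.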

In another assay the target is T2, c-kit (Homo sapiens, UniProt P10721).
T2 construct: MO7e (human megakaryocytic leukemia cell line) which had been arrested for 20 hr; endogenous in cells; host or cells: MO7e human megakaryocytic leukemia cell line
Nature of the assay: Inhibitory activity against c-kit autophosphorylation (MO7e cells, h-SCF). The note with it: for IC50: MO7e cells, 50 ng/ml h-SCF, read-out: c-kit IC50; for inhibition at 1 µM: Mo7e, figure within parentheses in −( ) or >1000( ), at 1000 nM. The assay is classed as cell-based. Summed up:
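First, human megakaryocytic leukemia MO7e cells arrested 20 hr receive compound for one hour. Second, SCF stimulation (50 ng/ml) runs 5 min, after which cells are solubilized. Third, tyrosine-phosphorylated c-kit in the lysate is quantified by sandwich ELISA with absorbance at 450 nm.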

[1] abbreviates: figure within parentheses in >100( ), at 100 nM.

The results in this text go back to patent publication US7135466B2 (Kirin Beer Kabushiki Kaisha, priority 1999, dated 2006).

As a reminder, the IC50 is the concentration that gives 50% inhibition. The inhibition is the share of the control response that was lost under treatment.

T2 sequence (P10721 26-976): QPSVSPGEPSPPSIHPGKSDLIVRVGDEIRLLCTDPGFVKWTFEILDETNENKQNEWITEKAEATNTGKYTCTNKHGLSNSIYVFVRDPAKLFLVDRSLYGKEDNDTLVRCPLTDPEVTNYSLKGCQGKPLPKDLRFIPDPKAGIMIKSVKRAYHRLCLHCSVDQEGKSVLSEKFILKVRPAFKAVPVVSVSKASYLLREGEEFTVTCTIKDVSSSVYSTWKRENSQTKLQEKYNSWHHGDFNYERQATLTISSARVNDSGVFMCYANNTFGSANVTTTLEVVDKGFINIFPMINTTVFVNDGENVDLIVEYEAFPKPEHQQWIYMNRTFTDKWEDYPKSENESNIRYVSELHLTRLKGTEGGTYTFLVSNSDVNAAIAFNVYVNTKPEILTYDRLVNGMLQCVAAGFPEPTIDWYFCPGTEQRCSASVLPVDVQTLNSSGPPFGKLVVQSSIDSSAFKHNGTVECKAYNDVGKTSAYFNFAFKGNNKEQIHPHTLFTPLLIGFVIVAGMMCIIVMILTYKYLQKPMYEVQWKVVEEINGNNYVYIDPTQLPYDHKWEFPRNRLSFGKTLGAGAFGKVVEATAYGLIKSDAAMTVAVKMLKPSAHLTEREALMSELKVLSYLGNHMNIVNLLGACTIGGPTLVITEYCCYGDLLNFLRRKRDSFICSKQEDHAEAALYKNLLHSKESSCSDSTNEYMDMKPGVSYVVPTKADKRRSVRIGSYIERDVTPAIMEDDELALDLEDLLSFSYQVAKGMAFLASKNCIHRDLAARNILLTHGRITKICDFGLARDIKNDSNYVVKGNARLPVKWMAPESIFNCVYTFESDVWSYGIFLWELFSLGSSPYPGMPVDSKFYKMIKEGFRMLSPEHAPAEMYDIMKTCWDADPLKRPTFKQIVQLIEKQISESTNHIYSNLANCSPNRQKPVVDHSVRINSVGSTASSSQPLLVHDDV
T1 sequence (P16234 24-1089): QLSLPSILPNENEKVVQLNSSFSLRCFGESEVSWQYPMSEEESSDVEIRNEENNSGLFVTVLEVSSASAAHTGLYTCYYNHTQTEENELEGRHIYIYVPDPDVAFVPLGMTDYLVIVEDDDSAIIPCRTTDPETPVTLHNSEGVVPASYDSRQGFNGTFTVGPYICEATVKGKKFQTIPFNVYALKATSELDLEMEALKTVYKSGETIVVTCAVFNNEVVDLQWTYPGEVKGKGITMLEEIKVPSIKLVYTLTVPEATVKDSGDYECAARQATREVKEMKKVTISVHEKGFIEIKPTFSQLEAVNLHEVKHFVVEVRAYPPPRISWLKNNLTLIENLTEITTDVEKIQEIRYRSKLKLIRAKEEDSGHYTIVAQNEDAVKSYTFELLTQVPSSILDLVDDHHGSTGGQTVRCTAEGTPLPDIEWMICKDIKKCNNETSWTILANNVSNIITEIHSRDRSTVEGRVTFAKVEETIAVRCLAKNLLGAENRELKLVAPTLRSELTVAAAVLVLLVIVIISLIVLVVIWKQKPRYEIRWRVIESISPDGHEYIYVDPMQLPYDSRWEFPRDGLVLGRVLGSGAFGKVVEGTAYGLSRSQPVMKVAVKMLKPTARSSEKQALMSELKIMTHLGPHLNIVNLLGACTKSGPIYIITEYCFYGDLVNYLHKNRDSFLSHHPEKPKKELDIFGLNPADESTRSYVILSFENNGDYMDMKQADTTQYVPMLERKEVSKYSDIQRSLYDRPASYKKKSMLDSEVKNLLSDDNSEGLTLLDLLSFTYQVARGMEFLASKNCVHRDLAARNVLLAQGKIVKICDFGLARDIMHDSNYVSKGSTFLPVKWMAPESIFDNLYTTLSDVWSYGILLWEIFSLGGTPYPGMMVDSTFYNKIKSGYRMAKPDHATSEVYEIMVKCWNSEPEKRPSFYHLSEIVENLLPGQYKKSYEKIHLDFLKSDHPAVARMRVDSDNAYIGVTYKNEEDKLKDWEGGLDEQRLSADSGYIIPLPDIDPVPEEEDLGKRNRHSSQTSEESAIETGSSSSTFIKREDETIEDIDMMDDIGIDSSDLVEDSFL

Regarding `COc1cc2nccc(Oc3cc(C)c(NC(=S)NCCCN4CCOCC4)cc3C)c2cc1OC` [Example 553, N-{4-[(6,7-Dimethoxy-4-quinolyl)oxy]-2,5-dimethylphenyl}-N′-[3-(1-morpholino)propyl]thiourea], the IC50 at PDGF-Ra is more than 100 nM; on c-kit it was 320 nM. The inhibition at 0.1 µM at PDGF-Ra (setting [1]) was 40%.
In the case of `COc1cc2nccc(Oc3cc(C)c(NC(=S)NCCN(C(C)C)C(C)C)cc3C)c2cc1OC` [Example 555, N-{4-[(6,7-Dimethoxy-4-quinolyl)oxy]-2,5-dimethylphenyl}-N′-(2-diisopropylaminoethyl)thiourea], on PDGF-Ra, the IC50 was more than 100 nM. For the same compound, at PDGF-Ra (setting [1]), the inhibition at 0.1 µM worked out at 29%. On c-kit, the inhibition at 1 µM worked out at 39%.
Consider `COc1cc2nccc(Oc3cc(C)c(NC(=S)NCCCN4CCN(C)CC4)cc3C)c2cc1OC` [Example 556, N-{4-[(6,7-Dimethoxy-4-quinolyl)oxy]-2,5-dimethylphenyl}-N′-[3-(4-methylpiperazinyl)propyl]thiourea], for which the IC50 on PDGF-Ra was more than 100 nM. The inhibition at 0.1 µM on PDGF-Ra (setting [1]) worked out at 13%. For the same compound, the inhibition at 1 µM on c-kit is 28%.
In the case of `COc1cc2nccc(Oc3ccc(NC(=S)NCCCN4CCN(C)CC4)c(C)c3C)c2cc1OC` [Example 557, N-{4-[(6,7-Dimethoxy-4-quinolyl)oxy]-2,3-dimethylphenyl}-N′-[3-(4-methylpiperazinyl)propyl]thiourea], the IC50 at PDGF-Ra was more than 100 nM; on c-kit, 634 nM. In addition, the “PDGF (E) inhibition (%) at 100 nM” value at PDGF-Ra (setting [1]) was found to be 33%.
Regarding `COc1cc2ncnc(Oc3ccc(NC(=S)NCCN(C)C)cc3)c2cc1OC` [Example 559, N-{4-[(6,7-Dimethoxy-4-quinazolinyl)oxy]phenyl}-N′-(2-dimethylaminoethyl)thiourea], the IC50 worked out at 36 nM on PDGF-Ra and 711 nM on c-kit.
Taken in the same sequence, the figures for `COc1cc2nccc(Oc3ccc(NC(=O)NC4CCN(Cc5ccccc5)C4)cc3)c2cc1OC` (stereo not drawn) [Example 560, N-(1-Benzyltetrahydro-1H-3-pyrrolyl)-N′-{4-[(6,7-dimethoxy-4-quinolyl)oxy]phenyl}urea] were 12 nM and 107 nM.
In the same order, the values of `CCOC(=O)N1CCC(NC(=O)Nc2ccc(Oc3ccnc4cc(OC)c(OC)cc34)cc2)CC1` [Example 561, Ethyl 4-[({4-[(6,7-dimethoxy-4-quinolyl)oxy]anilino}carbonyl)amino]-1-piperidine-carboxylate] are less than 10 nM and 54 nM.
For the compound `COc1cc2nccc(Oc3ccc(NC(=O)NC4CC(C)(C)NC(C)(C)C4)cc3)c2cc1OC` [Example 562, N-{4-[(6,7-Dimethoxy-4-quinolyl)oxy]-phenyl}-N′-(2,2,6,6-tetramethyl-4-piperidyl)urea], the half-maximal inhibitory concentration (IC50) on PDGF-Ra was determined as 80 nM. Further, the inhibition at 1 µM at c-kit worked out at 27%.
Regarding `COc1cc2ncnc(Oc3ccc(NC(=O)NC4CC(C)(C)NC(C)(C)C4)cc3)c2cc1OC` [Example 563, N-{4-[(6,7-Dimethoxy-4-quinazolinyl)oxy]phenyl}-N′-(2,2,6,6-tetramethyl-4-piperidyl)urea], the results for the half-maximal inhibitory concentration (IC50) at PDGF-Ra and at c-kit were 54 nM and 406 nM, respectively.
In the case of `COc1cc2nccc(Oc3ccc(NC(=O)N[C@@H]4CCN(Cc5ccccc5)C4)cc3)c2cc1OC` [Example 564, N-[(3R)-1-Benzyltetrahydro-1H-3-pyrrolyl]-N′-{4-[(6,7-dimethoxy-4-quinolyl)oxy]phenyl}urea], the IC50 on PDGF-Ra amounted to 39 nM; on c-kit, 291 nM.
In the same order, the values of `COc1cc2nccc(Oc3ccc(NC(=O)N[C@H]4CCN(Cc5ccccc5)C4)cc3)c2cc1OC` [Example 565, N-[(3S)-1-Benzyltetrahydro-1H-3-pyrrolyl]-N′-{4-[(6,7-dimethoxy-4-quinolyl)oxy]phenyl}urea] are 46 nM and 170 nM.
Taken in the same sequence, the figures for `COc1cc2ncnc(Oc3ccc(NC(=O)N[C@@H]4CCN(Cc5ccccc5)C4)cc3)c2cc1OC` [Example 566, N-[(3R)-1-Benzyltetrahydro-1H-3-pyrrolyl]-N′-{4-[(6,7-dimethoxy-4-quinazolinyl)oxy]phenyl}urea] were 17 nM and 276 nM.
On to `COc1cc2nccc(Oc3ccc(NC(=O)NC4CCN(Cc5ccccc5C)CC4)cc3)c2cc1OC` [Example 568, N-{4-[(6,7-Dimethoxy-4-quinolyl)oxy]phenyl}-N′-[1-(2-methylbenzyl)-4-piperidyl]urea], for which the IC50 at PDGF-Ra is more than 100 nM. The inhibition at 0.1 µM at PDGF-Ra (setting [1]) worked out at 28%. In addition, the inhibition at 1 µM at c-kit was 31%.
Consider `COc1cc2ncnc(Oc3ccc(NC(=O)NC4CCN(Cc5ccccc5C)C4)cc3)c2cc1OC` (stereo not drawn) [Example 569, N-{4-[(6,7-Dimethoxy-4-quinazolinyl)oxy]phenyl}-N′-[1-(2-methylbenzyl)tetrahydro-1H-3-pyrrolyl]urea], for which the IC50 on PDGF-Ra came out at 12 nM; on c-kit, 168 nM.
Taken in the same sequence, the figures for `COc1cc2ncnc(Oc3ccc(NC(=O)NC4CCN(Cc5ccccc5C)C4)c([N+](=O)[O-])c3)c2cc1OC` (stereo not drawn) [Example 570, N-{4-[(6,7-Dimethoxy-4-quinazolinyl)oxy]-2-nitrophenyl}-N′-[1-(2-methylbenzyl)tetrahydro-1H-3-pyrrolyl]urea] were 23 nM and 173 nM.
In the same order, the values of `COc1cc(Oc2ncnc3cc(OC)c(OC)cc23)ccc1NC(=O)NC1CCN(Cc2ccccc2C)C1` (stereo not drawn) [Example 571, N-{4-[(6,7-Dimethoxy-4-quinazolinyl)oxy]-2-methoxyphenyl}-N′-[1-(2-methylbenzyl)tetrahydro-1H-3-pyrrolyl]urea] are 32 nM and 556 nM.
In the same order, the values of `COc1cc2nccc(Oc3ccc(NC(=O)NC4CCN(Cc5ccccc5C)C4)c(C)c3C)c2cc1OC` (stereo not drawn) [Example 572, N-{4-[(6,7-Dimethoxy-4-quinolyl)oxy]-2,3-dimethylphenyl}-N′-[1-(2-methylbenzyl)tetrahydro-1H-3-pyrrolyl]urea] are 64 nM and 262 nM.
Regarding `COc1cc2ncnc(Oc3ccc(NC(=O)NC4CCN(Cc5ccccc5C)C4)c(Cl)c3)c2cc1OC` (stereo not drawn) [Example 573, N-{2-Chloro-4-[(6,7-dimethoxy-4-quinazolinyl)oxy]phenyl}-N′-[1-(2-methylbenzyl)tetrahydro-1H-3-pyrrolyl]urea], the half-inhibitory concentration (IC50) turned out to be 39 nM on PDGF-Ra and 348 nM at c-kit.
In the same order, the values of `COc1cc2nccc(Oc3ccc(NC(=O)NC4CCN(Cc5ccccc5C)C4)cc3)c2cc1OC` (stereo not drawn) [Example 574, N-{4-[(6,7-Dimethoxy-4-quinolyl)oxy]phenyl}-N′-[1-(2-methylbenzyl)tetrahydro-1H-3-pyrrolyl]urea] are 45 nM and 147 nM.
In the same order, the values of `COc1cc2ncnc(Oc3ccc(NC(=O)N[C@@H]4CCN(Cc5ccccc5)C4)c(Cl)c3)c2cc1OC` [Example 575, N-[(3R)-1-Benzyltetrahydro-1H-3-pyrrolyl]-N′-{2-chloro-4-[(6,7-dimethoxy-4-quinazolinyl)oxy]phenyl}urea] are 27 nM and 664 nM.
Taken in the same sequence, the figures for `COc1cc2ncnc(Oc3ccc(NC(=O)N[C@H]4CCN(Cc5ccccc5)C4)c(Cl)c3)c2cc1OC` [Example 576, N-[(3S)-1-Benzyltetrahydro-1H-3-pyrrolyl]-N′-{2-chloro-4-[(6,7-dimethoxy-4-quinazolinyl)oxy]phenyl}urea] were 36 nM and 151 nM.
For the compound `COc1cc2ncnc(Oc3ccc(NC(=O)N[C@@H]4CCN(Cc5ccccc5)C4)c([N+](=O)[O-])c3)c2cc1OC` [Example 577, N-[(3R)-1-Benzyltetrahydro-1H-3-pyrrolyl]-N′-{4-[(6,7-dimethoxy-4-quinazolinyl)oxy]-2-nitrophenyl}urea], the IC50 is 14 nM at PDGF-Ra and 328 nM at c-kit.
In the same order, the values of `COc1cc2ncnc(Oc3ccc(NC(=O)N[C@H]4CCN(Cc5ccccc5)C4)c([N+](=O)[O-])c3)c2cc1OC` [Example 578, N-[(3S)-1-Benzyltetrahydro-1H-3-pyrrolyl]-N′-{4-[(6,7-dimethoxy-4-quinazolinyl)oxy]-2-nitrophenyl}urea] are 18 nM and 104 nM.
Taken in the same sequence, the figures for `COc1cc2nccc(Oc3ccc(NC(=O)NC4CCN(Cc5ccccc5Cl)C4)cc3)c2cc1OC` (stereo not drawn) [Example 579, N-[1-(2-Chlorobenzyl)tetrahydro-1H-3-pyrrolyl]-N′-{4-[(6,7-dimethoxy-4-quinolyl)oxy]phenyl}urea] were 22 nM and 145 nM.
In the same order, the values of `COc1cc2ncnc(Oc3ccc(NC(=O)NC4CCN(Cc5ccccc5Cl)C4)cc3)c2cc1OC` (stereo not drawn) [Example 580, N-[1-(2-Chlorobenzyl)tetrahydro-1H-3-pyrrolyl]-N′-{4-[(6,7-dimethoxy-4-quinazolinyl)oxy]phenyl}urea] are 14 nM and 84 nM.
On to `COc1cc2ncnc(Oc3ccc(NC(=O)NC4CCN(Cc5ccccc5Cl)C4)c([N+](=O)[O-])c3)c2cc1OC` (stereo not drawn) [Example 581, N-[1-(2-Chlorobenzyl)tetrahydro-1H-3-pyrrolyl]-N′-{4-[(6,7-dimethoxy-4-quinazolinyl)oxy]-2-nitrophenyl}urea], for which the IC50 at PDGF-Ra was determined as 14 nM; on c-kit, 180 nM.
For `COc1cc2nccc(Oc3ccc(NC(=O)NC4CCN(Cc5ccc(C(C)(C)C)cc5)C4)cc3)c2cc1OC` (stereo not drawn) [Example 582, N-{1-[4-(Tert-butyl)benzyl]tetrahydro-1H-3-pyrrolyl}-N′-{4-[(6,7-dimethoxy-4-quinolyl)oxy]phenyl}urea], the IC50 on PDGF-Ra is more than 100 nM. Also, the inhibition at 0.1 µM on PDGF-Ra (setting [1]) worked out at 20%. Further, the inhibition at 1 µM at c-kit was determined as 29%.
